Test results taken from patent US20230023009A1, “HETEROCYCLIC COMPOUNDS AND METHODS OF USE THEREOF” (SPARCBIO LLC, priority 2020, published 2023).
pIC50: −log10 of the molar value. Where two headings read alike, the source gives them in different places.

Assays:
NCI-H358 cells = experiment: 3D cell proliferation assay (Cell Titer-Glo 3D, 7 days); type: cell-based; conditions: NCI-H358 3D, ultra-low attachment plate
Protocol: NCI-H358 cells (ATCC® CRL-5807™) were plated in a 384-well Black/Clear Round Bottom Ultra-Low Attachment Microplate (Corning) in medium (RPMI-1640+10% FBS) at a density of 1000 cells in 50 μL per well, then incubated overnight at 37° C. and 5% CO2. Cells were treated with test compounds at 9 concentrations within a specified concentration range (e.g., 0.5 nM-10 μM) for generation of dose response curves. Test compounds were prepared by 1:3 serial dilution in DMSO from a specified starting concentration (e.g., 20 μM, 2 μM or 0.2 μM) and then added to wells of the assay plate in a total volume of 150 nL DMSO. The cells were further incubated at 37° C. and 5% CO2 for 7 days. Cell viability was assessed by adding 40 μL of Cell Titer-Glo® 3D reagent (Cat. No.: G9683, Promega) to each well and reading luminescence after mixing and incubation of the samples. The IC50 value of each test compound was calculated with XLFit curve fitting software.

KRAS G12C protein = KRAS G12C protein (Homo sapiens, UniProt P01116, G12C); experiment: Nucleotide exchange assay (Method III, KRAS G12C/Raf-RBD TR-FRET); type: biochemical; conditions: SOS1-mediated exchange of GDP for GTP, 18 hr compound incubation
Sequence of KRAS G12C protein (P01116 1-188 isoform P01116-2 G12C): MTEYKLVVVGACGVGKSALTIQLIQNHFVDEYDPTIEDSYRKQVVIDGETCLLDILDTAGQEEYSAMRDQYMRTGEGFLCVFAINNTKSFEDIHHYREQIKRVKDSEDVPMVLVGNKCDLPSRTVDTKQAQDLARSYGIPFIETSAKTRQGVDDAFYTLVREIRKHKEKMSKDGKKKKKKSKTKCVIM
Protocol: Method III. Inhibition of SOS1-mediated exchange of GDP for GTP on the KRAS G12C protein was measured in a biochemical assay that monitors association of KRAS G12C protein with the Ras-binding domain of Raf (Raf-RBD), where the association is coupled to exchange of GDP to GTP on the KRAS G12C protein. The assay was performed at WuXi AppTec (Shanghai, China). Compounds were serially diluted in 3-fold dilutions to 11 concentrations and spotted into the wells of an assay plate in a total volume of 150 nL DMSO per well. A 2× enzyme mix was prepared by diluting GDP-bound, His-tagged KRAS G12C to 25 nM in assay buffer. 10 μL/well of 2× enzyme mix was added to all wells, and the plate was sealed and incubated overnight (18 hr) at 23° C. 4×SOS1/GDP and 4×SOS1/GTP were prepared in assay buffer. 5 μL/well of 4×SOS1/GDP mix was added to negative control wells, 5 μL/well of 4×SOS1/GTP mix was added to the remaining wells, and the plate was further incubated at 23° C. for 1 hr. Finally, FLAG-tagged Raf-RBD is added to the reaction mixture along with a pair of FRET donor- and acceptor-conjugated antibodies specific for the FLAG-tagged Raf-RBD and His-tagged KRAS G12C proteins. A 4×Raf-RBD/Tb-anti-FLAG/D2-anti-His mix was prepared in assay buffer, and 5 μL/well of the mix was added to all wells, followed by incubation at room temperature for 2 hr. The TR-FRET signals, which increase with association of KRAS G12C and Raf-RBD, were measured on a Perkin Elmer Envision 2104 plate reader, and data were analyzed by non-linear regression to obtain IC50 values for inhibition by compounds. Table 2 includes results of the assay of Method III. ‘+++’ indicates IC50 values≤300 nM, ‘++’ indicates IC50 values between 300 nM-3 μM, and ‘+’ indicates IC50 values≥3 μM.

MIA PaCa-2 = experiment: Cell proliferation assay panel (Cell Titer-Glo, 72 hr); type: cell-based
Protocol: Potency of compounds was determined in cell proliferation assays in a panel of cancer cell lines. Cells were seeded in 384-well plates (Corning, Cat. #3765) at specified densities in 40 μL of culture medium and incubated overnight at 37° C. in a 5% CO2 incubator (culture conditions). With a robotic dispenser, serially diluted test compounds were added in a volume of 20 nL DMSO to wells in the culture plate to achieve the final desired concentrations of test compounds, and the cells were further incubated in culture conditions for 72 hr. The assay was terminated by addition of 25 μL of Cell Titer-Glo reagent (Promega, Madison, Wis.) to each well. Contents were mixed, the plate was incubated for 10 min at room temperature and luminescence was measured. The IC50 value of each test compound was calculated with XLFit curve fitting software. Results are shown in Table 4. ‘+++’ indicates IC50 values≤300 nM, ‘++’ indicates IC50 values between 300 nM-3 μM, and ‘+’ indicates IC50 values≥3 μM.

[1] = test system: NCI-H358 subcutaneous xenograft tumors; experiment: NCI-H358 mouse xenograft model
Protocol: NCI-H358 cells were injected subcutaneously (5×10^6 cells in 0.1 mL of PBS) into the right flanks of 6-8-week-old female BALB/c nude mice and allowed to grow until the average tumor size reached 150-200 mm^3. The mice were then stratified into treatment groups of 4-8 animals and treatment initiated on Day 0. Test compound or vehicle (1% Tween 80, 2% HPMC, and 97% water) was administered orally, once daily, for 21 days. Tumor size was measured twice weekly in two dimensions using a caliper, and the volume was expressed in mm^3 using the formula: V=(a×b^2/2) where a and b are the long and short diameters of the tumor, respectively. Tumor Growth Inhibition (TGI) was calculated for each group using the formula: TGI %=(1−Ti/Vi)×100, where Ti is the mean tumor volume of the treatment group on the measurement day, and Vi is the mean tumor volume of the control group on the measurement day. Animal body weight was monitored regularly as an indicator of toxicity. […] Data points represent the group mean, and error bars represent the standard error of the mean (SEM).

| Structure (SMILES) | pIC50 (KRAS G12C protein) | pIC50 (NCI-H358 cells; Homo sapiens, NCI-H358, 168 h) | also measured |
| --- | --- | --- | --- |
| C=CC(=O)N1CCN(c2nc(OC[C@@H]3CCCN3C)nc3c2COC(c2cccc4cccc(Cl)c24)C3)CC1 (single isomer, unassigned) [40 (Isomer B)] | ≤ 5.52 | – | pIC50 (NCI-H358 cells): ≤ 5.70 |
| C=C(F)C(=O)N1CCN(c2nc(OC[C@@H]3CC(F)(F)CN3C)nc3c2COC(c2cccc4cccc(Cl)c24)C3)C[C@@H]1CC#N (single isomer, unassigned) [228 (Isomer B)] | ≤ 5.52 | – | pIC50 (NCI-H358 cells): ≤ 5.70 |
| C=C(F)C(=O)N1CCN(c2nc(OC[C@@H]3CCCN3C)nc3c2CC=C(c2cccc4cccc(Cl)c24)O3)C[C@@H]1CC#N [Compound 178, 2-((S)-4-(7-(8-chloronaphthalen-1-yl)-2-(((S)-1-methylpyrrolidin-2-yl)methoxy)-5H-pyrano[2,3-d]pyrimidin-4-yl)-1-(2-fluoroacryloyl)piperazin-2-yl)acetonitrile] | ≥ 6.52 | 5.70 to 7.00 | – |
| C=C(F)C(=O)N1CCN(c2nc(OC[C@@H]3CCCN3C)nc3c2COC(c2cccc4cccc(Cl)c24)C3(C)C)C[C@@H]1CC#N (single isomer, unassigned) [258 (Isomer B)] | ≥ 6.52 | ≥ 7.00 | pIC50 (MIA PaCa-2; Homo sapiens, MIA PaCa-2, 72 h): ≥ 6.52 |
| C=C(F)C(=O)N1CCN(c2nc(OC[C@@H]3CC(F)(F)CN3C)nc3c2COC(c2cccc4cccc(Cl)c24)C3)C[C@@H]1CC#N (single isomer, unassigned) [228 (Isomer A)] | ≥ 6.52 | – | pIC50 (NCI-H358 cells): ≥ 7.00; pIC50 (MIA PaCa-2; Homo sapiens, MIA PaCa-2, 72 h): 5.52 to 6.52 |
| C=C(F)C(=O)N1CCN(c2nc(OC[C@H]3CCCN3C)nc3c2COC(c2cccc4cccc(Cl)c24)C3)C[C@@H]1CC#N (single isomer, unassigned) [267 (Isomer A)] | 5.52 to 6.52 | – | pIC50 (MIA PaCa-2): ≤ 5.52 |
| C=C(F)C(=O)N1CCN(c2nc(OC[C@@H]3CCCN3C)nc3c2CO[C@H](c2cccc4cccc(Cl)c24)C3)C[C@@H]1CC#N (single isomer, unassigned) [43 (Isomer A)] | ≤ 5.52 | ≤ 5.70 | – |
| C=C(F)C(=O)N1CCN(c2nc(OC[C@H]3CCCN3C)nc3c2COC(c2cccc4cccc(Cl)c24)C3)C[C@@H]1CC#N (single isomer, unassigned) [267 (Isomer B)] | ≥ 6.52 | – | pIC50 (MIA PaCa-2): ≥ 6.52 |
| C=C(F)C(=O)N1CCN(c2nc(OCC34CCCN3CCC4)nc3c2COC(c2cccc4cccc(Cl)c24)C3)C[C@@H]1CC#N (single isomer, unassigned) [266 (Isomer B)] | ≥ 6.52 | ≥ 7.00 | pIC50 (MIA PaCa-2): ≥ 6.52 |
| C=C(F)C(=O)N1CCN(c2nc(OC[C@@H]3CCCN3C)nc3c2COC(c2nc(N)cc4ccccc24)C3)C[C@@H]1CC#N (single isomer, unassigned) [259 (Isomer B)] | ≥ 6.52 | – | pIC50 (MIA PaCa-2): ≥ 6.52 |
| C=CC(=O)N1CCN(c2nc(OC[C@@H]3CCCN3C)nc3c2COC(c2cccc4cccc(Cl)c24)C3)C[C@@H]1CC#N (single isomer, unassigned) [38 (Isomer B)] | ≥ 6.52 | ≥ 7.00 | TGI ([1]; 10 mg/kg orally once daily, Day 20 after treatment start): 22.4%; TGI ([1]; 30 mg/kg orally once daily, Day 20 after treatment start (day not restated for comparators)): 26.7%; TGI ([1]; 100 mg/kg orally once daily, Day 20 after treatment start): 50.4% |
| C=C(F)C(=O)N1CCN(c2nc(OC[C@@H]3CCCN3C)nc3c2COC(c2cccc4sc(N)nc24)C3)C[C@@H]1CC#N (single isomer, unassigned) [260 (Isomer A)] | ≥ 6.52 | 5.70 to 7.00 | pIC50 (MIA PaCa-2; Homo sapiens, MIA PaCa-2, 72 h): 5.52 to 6.52 |
| C=C(F)C(=O)N1CCN(c2nc(OC[C@@H]3CCCN3C)nc3c2COC(c2nc(N)cc4ccccc24)C3)C[C@@H]1CC#N (single isomer, unassigned) [259 (Isomer A)] | 5.52 to 6.52 | – | pIC50 (MIA PaCa-2): ≤ 5.52 |
| C=CC(=O)N1CCN(c2nc(OC[C@@H]3CCCN3C)nc3c2COC(c2cccc4cccc(Cl)c24)C3)CC1 (single isomer, unassigned) [40 (Isomer A)] | ≥ 6.52 | – | pIC50 (NCI-H358 cells): 5.70 to 7.00 |
| C=C(F)C(=O)N1CCN(c2nc(OC[C@@H]3CCCN3C)nc3c2OCC(c2cccc4cccc(Cl)c24)O3)C[C@@H]1CC#N (single isomer, unassigned) [64 (Isomer B)] | 5.52 to 6.52 | – | – |
| C=CC(=O)N1CCN(c2nc(OC[C@@H]3CCCN3C)nc3c2CC=C(c2cccc4cccc(Cl)c24)O3)C[C@@H]1CC#N [Compound 181, 2-((S)-1-acryloyl-4-(7-(8-chloronaphthalen-1-yl)-2-(((S)-1-methylpyrrolidin-2-yl)methoxy)-5H-pyrano[2,3-d]pyrimidin-4-yl)piperazin-2-yl)acetonitrile] | ≥ 6.52 | ≥ 7.00 | – |
| C=C(F)C(=O)N1CCN(c2nc(OCC34CCCN3CCC4)nc3c2COC(c2cccc4cccc(Cl)c24)C3)C[C@@H]1CC#N (single isomer, unassigned) [266 (Isomer A)] | 5.52 to 6.52 | – | pIC50 (MIA PaCa-2; Homo sapiens, MIA PaCa-2, 72 h): 5.52 to 6.52 |
| C=C(F)C(=O)N1CCN(c2nc(OC3CN(C)CC3C)nc3c2COC(c2cccc4cccc(Cl)c24)C3)C[C@@H]1CC#N (single isomer, unassigned) [272 (Isomer C)] | ≥ 6.52 | – | – |
| C=C(C)C(=O)N1CCN(c2nc(OC[C@@H]3CCCN3C)nc3c2COC(c2cccc4cccc(Cl)c24)C3)C[C@@H]1CC#N (single isomer, unassigned) [240 (Isomer B)] | ≤ 5.52 | – | – |
| C=C(F)C(=O)N1CCN(c2nc(OC[C@@H]3CCCN3C)nc3c2OCC(c2cccc4cccc(Cl)c24)O3)[C@@H](C)C1 (single isomer, unassigned) [136 (Isomer B)] | ≤ 5.52 | – | – |
| C=C(F)C(=O)N1CCN(c2nc(OC[C@@H]3CCCN3C)nc3c2COC(c2cccc4cccc(Cl)c24)C3)[C@@H](C)C1 (single isomer, unassigned) [44 (Isomer A)] | ≤ 5.52 | – | – |
| C=C(Cl)C(=O)N1CCN(c2nc(OC[C@@H]3CCCN3C)nc3c2COC(c2cccc4cccc(Cl)c24)C3)C[C@@H]1CC#N (single isomer, unassigned) [239 (Isomer B)] | ≥ 6.52 | ≥ 7.00 | pIC50 (MIA PaCa-2; Homo sapiens, MIA PaCa-2, 72 h): ≥ 6.52 |
| C=C(F)C(=O)N1CCN(c2nc(OC[C@@H]3CCCN3C)nc3c2COC(c2cccc4cccc(Cl)c24)C3)C[C@H]1C (single isomer, unassigned) [42 (Isomer B)] | ≤ 5.52 | – | – |
| C=C(F)C(=O)N1CCN(c2nc(Oc3cccc4c3CN(C)CC4)nc3c2COC(c2cccc4cccc(Cl)c24)C3)C[C@@H]1CC#N (single isomer, unassigned) [249 (Isomer B)] | ≤ 5.52 | – | – |
| C=C(F)C(=O)N1CCN(c2nc(NCCC(=O)N(C)C)nc3c2COC(c2cccc4cccc(Cl)c24)C3)C[C@@H]1CC#N (single isomer, unassigned) [232 (Isomer A)] | 5.52 to 6.52 | – | – |
